Data set [1] has as its target T1, Bifunctional epoxide hydrolase 2 (Homo sapiens, UniProt P34913).
T1 sequence (P34913 whole entry): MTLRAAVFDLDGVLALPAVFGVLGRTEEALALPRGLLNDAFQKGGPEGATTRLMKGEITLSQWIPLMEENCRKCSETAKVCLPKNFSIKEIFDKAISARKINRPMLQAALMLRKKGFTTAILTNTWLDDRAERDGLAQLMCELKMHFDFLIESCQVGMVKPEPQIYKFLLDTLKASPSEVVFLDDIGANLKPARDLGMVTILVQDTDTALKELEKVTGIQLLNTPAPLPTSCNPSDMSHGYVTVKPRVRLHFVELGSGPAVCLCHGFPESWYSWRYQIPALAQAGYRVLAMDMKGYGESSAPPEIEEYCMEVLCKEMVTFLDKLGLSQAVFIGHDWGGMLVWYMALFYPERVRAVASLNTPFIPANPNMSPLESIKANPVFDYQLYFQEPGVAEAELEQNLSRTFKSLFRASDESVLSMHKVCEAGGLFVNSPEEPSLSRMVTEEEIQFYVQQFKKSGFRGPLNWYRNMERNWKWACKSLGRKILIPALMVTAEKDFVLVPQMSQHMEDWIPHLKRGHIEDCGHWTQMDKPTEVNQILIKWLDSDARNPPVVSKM
The experiment in a line: Inhibition of human sEH using epoxy flour 7 as substrate measured after 30 mins by cell-based fluorescence assay.

Data set [2] concerns Rattus norvegicus. The experiment in a line: Antiinflammatory activity in albino rat model of carrageenan-induced paw edema assessed as inhibition of paw edema at 50 mg/kg, po administered 1 hr prior to carrageenan challenge and measured after 5 hrs by Vernier caliper method relative to control. Conditions: time 6 hrs. In kind it is functional. (The carrageenan paw model is a standard test of acute inflammation.)

The test system of data set [3] is Rattus norvegicus. Kind of data set: Antiinflammatory activity in albino rat model of carrageenan-induced paw edema assessed as inhibition of paw edema at 50 mg/kg, po administered 1 hr prior to carrageenan challenge and measured after 3 hrs by Vernier caliper method relative to control. In kind it is functional. Particulars: time 4 hrs.
The test system of data set [4] is Mus musculus. The experiment in a line: Analgesic activity in albino mouse assessed as inhibition of acetic acid-induced writhing at 10 mg/kg, po administered 1 hr prior to acetic acid challenge and measured after 5 to 15 mins relative to celecoxib. Conditions: time 60-75 min. It is filed as functional.
The target of data set [5] is T2, Prostaglandin G/H synthase 2 (Homo sapiens, UniProt P35354).
T2 sequence (P35354 whole entry): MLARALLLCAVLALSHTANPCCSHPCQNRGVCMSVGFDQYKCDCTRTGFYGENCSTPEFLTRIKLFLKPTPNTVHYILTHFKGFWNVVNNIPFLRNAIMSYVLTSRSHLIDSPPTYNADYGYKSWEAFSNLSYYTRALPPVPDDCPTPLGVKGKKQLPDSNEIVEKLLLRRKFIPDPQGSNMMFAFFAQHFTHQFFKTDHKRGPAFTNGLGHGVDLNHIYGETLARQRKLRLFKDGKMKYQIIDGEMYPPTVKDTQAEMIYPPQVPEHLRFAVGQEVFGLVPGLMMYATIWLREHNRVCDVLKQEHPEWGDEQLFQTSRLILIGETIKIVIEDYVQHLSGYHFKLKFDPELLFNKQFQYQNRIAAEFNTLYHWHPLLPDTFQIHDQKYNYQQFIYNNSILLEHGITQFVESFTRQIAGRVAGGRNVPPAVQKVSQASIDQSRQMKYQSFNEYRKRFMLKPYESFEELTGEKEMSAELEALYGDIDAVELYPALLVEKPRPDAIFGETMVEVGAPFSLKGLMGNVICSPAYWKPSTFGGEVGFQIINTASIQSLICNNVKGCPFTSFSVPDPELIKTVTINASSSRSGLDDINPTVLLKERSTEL
Kind of data set: Inhibition of recombinant human COX2 using arachidonic acid as substrate preincubated for 5 mins followed by substrate addition and measured after 2 mins by Ellman's reagent based enzyme immunoassay. In kind it is ADME. (In general: DTNB colorimetry detects thiols as they appear.)

Data set [6] has as its system Rattus norvegicus. The experiment in a line: Antiinflammatory activity in albino rat model of carrageenan-induced paw edema assessed as inhibition of paw edema at 50 mg/kg, po administered 1 hr prior to carrageenan challenge and measured after 1 hr by Vernier caliper method relative to control. It is filed as functional. Particulars: time 2 hrs.
Data set [7] concerns the target Prostaglandin G/H synthase 1 (Homo sapiens, UniProt P23219). The experiment in a line: Inhibition of recombinant human COX1 using arachidonic acid as substrate preincubated for 5 mins followed by substrate addition and measured after 2 mins by Ellman's reagent based enzyme immunoassay. It is filed as ADME.
Data set [8] can be described thus: Selectivity index, ratio of IC50 for recombinant human COX1 to recombinant human COX2.
Data set [9] concerns Mus musculus. The experiment in a line: Analgesic activity in albino mouse assessed as inhibition of acetic acid-induced writhing at 10 mg/kg, po administered 1 hr prior to acetic acid challenge and measured after 5 to 15 mins relative to control. It is filed as functional. Conditions: time 60-75 min. A general note: Writhing tests count abdominal constrictions after an irritant is injected.

For data set [10], the system named is Rattus norvegicus. Kind of data set: Cardioprotective activity in celecoxib-induced cardiotoxicity in albino Wistar rat assessed as change in serum LDH level at 100 mg/kg, po administered for 2 weeks and measured on day 15 by spectrophotometry (reference value: 2091.3 +/- 99.9 IU/L). In kind it is functional. Particulars: time 15 day.
Data set [11] has as its system Rattus norvegicus. Kind of data set: Cardioprotective activity in celecoxib-induced cardiotoxicity in albino Wistar rat assessed as restoration of serum PGI2 level at 100 mg/kg, po administered for 2 weeks and measured on day 15 by ELISA. In kind it is functional, organism-based. Conditions: time 15.0 day.
The test system of data set [12] is Rattus norvegicus. The experiment in a line: Cardioprotective activity in celecoxib-induced cardiotoxicity in albino Wistar rat assessed as reduction in congestion in myocardium blood vessel at 100 mg/kg, po administered for 2 weeks and measured on day 15 by H and E staining based histopathological analysis. It is filed as functional, organism-based. Particulars: time 15.0 day.

The subject of data set [13] is Rattus norvegicus. The experiment in a line: Cardioprotective activity in celecoxib-induced cardiotoxicity in albino Wistar rat assessed as restoration of GSH level in cardiac tissue at 100 mg/kg, po administered for 2 weeks and measured on day 15. In kind it is functional, organism-based. Particulars: time 15.0 day.
A short description of data set [14]: Cardiotoxicity in albino Wistar rat assessed as change in serum PGI2 level at 100 mg/kg, po administered for 2 weeks and measured on day 15 by ELISA. It is filed as toxicity, organism-based. Conditions: in vivo, 360 h, time 15 day.
Data set [15] relates to Rattus norvegicus. Kind of data set: Cardioprotective activity in celecoxib-induced cardiotoxicity in albino Wistar rat assessed as change in serum TNFalpha level at 100 mg/kg, po administered for 2 weeks and measured on day 15 by ELISA (reference value: 748.67 +/- 43.15 pg/ml). Conditions: time 15 day. It is filed as functional.
Data set [16] deals with Rattus norvegicus. The experiment in a line: Cardioprotective activity in celecoxib-induced cardiotoxicity in albino Wistar rat assessed as reduction in edema in coronary artery at 100 mg/kg, po administered for 2 weeks and measured on day 15 by H and E staining based histopathological analysis. In kind it is functional, organism-based. Particulars: time 15.0 day.
The test system of data set [17] is Rattus norvegicus. The experiment in a line: Cardioprotective activity in celecoxib-induced cardiotoxicity in albino Wistar rat assessed as reduction in edema in myocardium blood vessel at 100 mg/kg, po administered for 2 weeks and measured on day 15 by H and E staining based histopathological analysis. In kind it is functional, organism-based. Conditions: time 15.0 day.

Data set [18] deals with Rattus norvegicus. The experiment in a line: Cardioprotective activity in celecoxib-induced cardiotoxicity in albino Wistar rat assessed as change in serum creatine kinase-MB level at 100 mg/kg, po administered for 2 weeks and measured on day 15 by spectrophotometry (reference value: 95.33 +/- 4 IU/L). It is filed as functional. Particulars: time 15 day.
The test system of data set [19] is Rattus norvegicus. The experiment in a line: Cardioprotective activity in celecoxib-induced cardiotoxicity in albino Wistar rat assessed as reduction in congestion in coronary artery at 100 mg/kg, po administered for 2 weeks and measured on day 15 by H and E staining based histopathological analysis. It is filed as functional, organism-based. Conditions: time 15.0 day.

In data set [20] the test system is Rattus norvegicus. The experiment in a line: Cardioprotective activity in celecoxib-induced cardiotoxicity in albino Wistar rat assessed as change in serum troponin-I level at 100 mg/kg, po administered for 2 weeks and measured on day 15 by ELISA (reference value: 340 +/- 11.56 pg/ml). It is filed as functional. Conditions: time 15 day.

The source made the active and inactive calls. No cut-off for these calls is given here.

Sequence of Prostaglandin G/H synthase 1 (P23219 whole entry): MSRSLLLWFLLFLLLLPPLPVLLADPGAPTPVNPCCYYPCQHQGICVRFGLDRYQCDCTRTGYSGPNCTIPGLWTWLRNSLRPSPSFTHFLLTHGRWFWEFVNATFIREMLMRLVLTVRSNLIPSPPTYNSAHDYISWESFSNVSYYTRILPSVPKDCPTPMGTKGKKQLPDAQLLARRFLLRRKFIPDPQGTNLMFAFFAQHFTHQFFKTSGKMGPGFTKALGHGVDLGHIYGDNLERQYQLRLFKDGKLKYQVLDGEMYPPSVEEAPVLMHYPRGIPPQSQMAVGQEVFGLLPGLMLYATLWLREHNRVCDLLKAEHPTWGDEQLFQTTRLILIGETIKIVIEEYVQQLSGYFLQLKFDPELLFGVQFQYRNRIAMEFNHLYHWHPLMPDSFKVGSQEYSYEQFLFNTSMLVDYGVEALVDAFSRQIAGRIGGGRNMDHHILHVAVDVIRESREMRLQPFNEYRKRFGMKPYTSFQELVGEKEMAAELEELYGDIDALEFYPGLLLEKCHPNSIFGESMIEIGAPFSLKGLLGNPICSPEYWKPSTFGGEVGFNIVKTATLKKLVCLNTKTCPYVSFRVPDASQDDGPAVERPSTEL

Turning to `NS(=O)(=O)c1ccc(-n2nc(NC(=O)NCCCC(=O)O)cc2-c2ccccc2)cc1`, the IC50 (in general, the concentration that gives 50% inhibition) in data set [1] is 4.01 nM.

`NS(=O)(=O)c1ccc(-n2nc(C(=O)NCCCCCCCCCCC(=O)O)cc2-c2ccccc2)cc1`: the concentration for half-maximal inhibition (IC50) in [1] was 3.31 nM.

In turn, `NS(=O)(=O)c1ccc(-n2nc(C(=O)NC3CCCCC3)cc2-c2ccccc2)cc1` had a 50% inhibitory concentration (IC50) in [1] of 2.38 nM.

In turn, `NS(=O)(=O)c1ccc(-n2nc(NC(=O)NC3CCCCC3)cc2-c2ccccc2)cc1` came in with an IC50 in [1] of 0.98 nM.

As to `NS(=O)(=O)c1ccc(-n2nc(C(=O)NCCCC(=O)O)cc2-c2ccccc2)cc1`, in [1], the IC50 was determined as 1.84 nM.

With `NS(=O)(=O)c1ccc(-n2nc(C(=O)NC34CC5CC(CC(C5)C3)C4)cc2-c2ccccc2)cc1`, the figures for the inhibition in vivo at 50 mg/kg in data set [2], in data set [3] and in data set [6] were 84.2%, 76.5% and 42%, respectively. Also, the “fold change (FC)” value in [4] worked out at 4.66. Also, the values for the IC50 in [5], in [1] and in data set [7] were 2150 nM, 1.15 nM and 8990 nM, respectively. Besides, in [8], the “Ratio IC50” value is 4.18. Besides, the inhibition in vivo (in general, the percentage by which the read-out fell short of the control) at 10 mg/kg in data set [9] came out at 62.7%.

The compound `NS(=O)(=O)c1ccc(-n2nc(C(=O)Nc3ccc(C(F)(F)F)cc3)cc2-c2ccccc2)cc1` registered an IC50 in data set [1] of 1.21 nM.

The compound `NS(=O)(=O)c1ccc(-n2nc(NC(=O)Nc3ccc(C(F)(F)F)cc3)cc2-c2ccccc2)cc1` yielded an IC50 in data set [1] of 0.4 nM.

Take `CCOC(=O)C1CCN(C(=O)Nc2cc(-c3ccccc3)n(-c3ccc(S(N)(=O)=O)cc3)n2)CC1`: the half-maximal inhibitory concentration (IC50) in data set [1] was determined as 1.74 nM.

In turn, `CCOC(=O)C1CCN(C(=O)c2cc(-c3ccccc3)n(-c3ccc(S(N)(=O)=O)cc3)n2)CC1` displayed a half-inhibitory concentration (IC50) in data set [1] of 1.61 nM.

Turning to `NS(=O)(=O)c1ccc(-n2nc(NC(=O)NC34CC5CC(CC(C5)C3)C4)cc2-c2ccccc2)cc1`, the Activity in [10] is 1585 IU/L; in data set [14], “Toxic”; in [15] it was 322 pg/mL; in [18], 22 IU/L; in data set [20] it was 150 pg/mL. Besides, the outcome in data set [11], in data set [12], in [13], in data set [16], in [17] and in [19] was Active. Further, the values for the inhibition in vivo at 50 mg/kg in [2], in data set [3] and in [6] were 93.8%, 92% and 62.2%, respectively. Besides, the “fold change (FC)” value in data set [4] was found to be 1.83. Moreover, the IC50 in data set [5] was found to be 1850 nM; in [1], 0.55 nM; in [7] it was 11800 nM. Also, the “Ratio IC50” value in [8] worked out at 6.41. Moreover, the inhibition in vivo at 10 mg/kg in [9] stood at 24.6%.

In data set [1], `NS(=O)(=O)c1ccc(-n2nc(NC(=O)NCCCCCCCCCCC(=O)O)cc2-c2ccccc2)cc1` had an IC50 of 1.57 nM.

`Cc1ccc(-c2cc(C(F)(F)F)nn2-c2ccc(S(N)(=O)=O)cc2)cc1` [CELECOXIB]: the inhibition in vivo at 50 mg/kg was determined as 88.3% in data set [2], 82.7% in [3] and 81.2% in data set [6]. In addition, in [14], the Activity entry is listed as “Toxic”. Moreover, in data set [9], the inhibition in vivo at 10 mg/kg stood at 13.4%.

These data come from ChEMBL document CHEMBL4765415 (Eur J Med Chem, 2020).
